One data set deals with promoter of involucrin. The note with it: high dose of 20 μg/mL; literature; cited from earlier work.
Data set [1] in a line: Bioavailability study: plasma/serum concentrations of catechins (EC, EGC, EGCG) after ingestion. The data set is classed as in vivo, human. The note with it: ingestion of 45 mg of catechins. As for the experimental part:
This study evaluates the bioavailability of the combination of catechins with GLA, and in particular the bioavailability of this combination in a yoghurt containing probiotics (see Table 1).
To evaluate this bioavailability, the plasma concentrations of GLA and of catechins are monitored at different points in time after ingestion of products 1, 2, 3 or 4.
This study is a norm-centred, randomized, open study. It was carried out with 12 female volunteers (average age 30.8 years; body mass index (BMI) on average 21.4).
During each assessment visit (V2, V3, V4), the subjects consumed a product at random (among the 4 products). […]
[…] blood samples were taken in the 6 hours following ingestion of the product. The plasma concentration of the active ingredients was measured at 6 points in time (T0, T1 h, T2 h, T3 h, T4 h, T6 h) for measuring the plasma kinetics of GLA and the catechins. […]
The plasma concentrations of catechins and specifically of epicatechin (EC), epigallocatechin (EGC), and epigallocatechin gallate (EGCG) were determined by HPLC as described by Lee et al. (Lee M J, Prabhu S, Meng X, Li C, Yang C S. An improved method for the determination of green and black tea polyphenols in biomatrices by high-performance liquid chromatography with coulometric array detection. Anal. Biochem. 2000; 279: 164-9) and on the basis of the general knowledge of a person skilled in the art. […]

For data set [2], the system named is transglutaminase K (TGK) expression in normal human keratinocytes (NHEKs). Put plainly: Expression of transglutaminase K (TGK) in NHEKs (immunofluorescence related to number of nuclei). The note with it: for Expression of TGK (average): related to negative control. Format: cell-based. The protocol:
The GLA used is the product L2378 from the company SIGMA. The 4 main forms of catechins forming green tea polyphenol are mixed in the natural proportions: EGCG, EGC, ECG and EC (respective SIGMA references E4143, E3768, E3893 and E4018).
The range of concentration of GLA tested in vitro was from 1 to 4 μg/ml and that of GTP was from 0.3 to 0.7 μg/ml.
(§1) The tests are carried out on normal human keratinocytes (NHEKs) in a monolayer. The NHEKs are sown at 10^4/well in serum-free medium (SFM) without calcium, under conditions of temperature of 37° C., CO2 of 5% and relative humidity RH>95%. The NHEKs are incubated like this for 24 hours. The medium is then removed. Then the NHEKs are incubated for 48 hours in the presence of either: • SFM (serum-free medium) with addition of gamma-linolenic acid and green tea polyphenols at a concentration of 1.25, 2.5 or 3.75 μg/mL for GLA and at a concentration of 0.5 μg/ml for GTP; • SFM (serum-free medium) without calcium, which serves as negative control; • SFM (serum-free medium) with addition of calcium (1.50 mM), which serves as positive control.
The media are removed and a second incubation is carried out in the presence of the 3 types of media.
The culture medium is removed and then rinsing with PBS is carried out. The cells are then permeabilized and fixed with absolute methanol for 10 minutes at −20° C. Then drying and nonspecific saturation with a PBS-Tween20-milk proteins mixture are carried out, followed by rinsing with PBS. The NHEK cells are labelled with an anti-TGK monoclonal antibody (Reference: TEBU 0175003), then incubated for 1 hour at room temperature and rinsed with PBS.
Detection is carried out with a GAM-FITC conjugated secondary antibody (Reference: Life Technology A 11001) and the fluorescence is measured using software (Reference: NIKKON; LICIA Software).
The nuclei are labelled and counted by the Hoechst technique. First, the medium is removed and rinsing with PBS is carried out. Hoechst labelling (Reference: bis-benzimide Sigma B1155) is then used and incubation is carried out for 1 hour at ambient temperature. This is followed by rinsing with PBS, image acquisition and quantification of fluorescence.
The results are expressed in specific fluorescence of TGK, i.e. they are related to the number of nuclei so as to be independent of the variations in growth of the cells.
The average expression of TGK corresponds to measurement of the quantity of fluorescence referred to the number of nuclei after Hoechst labelling.

Data set [3] deals with normal human keratinocytes (NHEKs). Put plainly: Cytotoxicity test (MTT) on NHEKs, involucrin study. Format: cell-based. The note with it: up to 10 μg/mL, regardless of the calcium concentration. The protocol:
(§2) The NHEKs of the two groups are incubated for 48 hours in the presence of a low ([…]) or a high ([…]) concentration of calcium, and in the presence of either: • SFM (serum-free medium) with addition of 0, 1, 3 and 10 μg/mL of gamma-linolenic acid and/or of green tea extracts, in which the concentration of green tea polyphenol is approximately 88 wt. %; • SFM (serum-free medium) with addition of calcium, which serves as positive control.
(§3) The cell viability of the NHEKs is evaluated after labelling with 3-[4,5-dimethylthiazol-2-yl]-2,5-diphenyltetrazolium bromide (MTT) (SIGMA).

The test system is the same in data set [4]. Briefly: Cytotoxicity test (MTT) on NHEKs, TGK study. The data set is classed as cell-based. The note with it: MTT labelling. As for the experimental part:
as §1, §3

Data set [5] relates to involucrin expression in normal human keratinocytes (NHEKs). Put plainly: Expression of involucrin in NHEKs (ELISA). The data set is classed as cell-based. The note with it: 0 to 10 μg/mL; NHEKs of groups 1 (abdominal) and 2 (breast); high or low calcium concentration; 48 hours. The protocol:
The GLA used is the product L2378 from the company SIGMA.
as §2

Turning to `O=C(O[C@@H]1Cc2c(O)cc(O)cc2O[C@@H]1c1cc(O)c(O)c(O)c1)c1cc(O)c(O)c(O)c1` [EGCG, epigallocatechin gallate], the “effect on the promoter of involucrin” value in the data set on promoter of involucrin is listed as “activation”. For the same compound, the “concentration of the individual catechin in the serum” value in data set [1] was 0.04 to 0.33 µmol; in data set [1] (mass units), 18 to 152 ng/mL.
`[Ca+2]` [Ca++, calcium]: in data set [2] (positive control, calcium 1.5 mM), the “Expression of TGK (average)” value amounted to 1407%.
`CCCCC/C=C\C/C=C\C/C=C\CCCCC(=O)O` [GLA, gamma-linolenic acid]: in data set [3], the “toxicity to the NHEKs” value was “not toxic”. In addition, the “maximum concentration without loss of viability of the NHEKs” value in data set [4] came to 5.00 µg/mL. Further, the results for the “Expression of TGK (average)” value in data set [2] (GLA 1.25 μg/mL) and in data set [2] (GLA 3.75 μg/mL) were 250% and 220%, respectively. Further, the “expression/activation of TGK after treatment (conclusion in words)” value in data set [2] (at the concentrations tested (GLA 1.25 and 3.75 μg/mL; GTP 0.5 μg/mL; GLA 2.5 + GTP 0.5 μg/mL)) is listed as “seems to be activated”. In data set [5], the “expression of involucrin after treatment alone” value is reported as “increased”.

The values are drawn from US20110104274A1, “NOVEL COMPOSITION AND USES THEREOF, IN PARTICULAR COSMETIC USES, FOR TREATING SKIN DEHYDRATION” (COMPAGNIE GERVAIS DANONE, priority 2006, published 2011).
